Test results published in US20010011081A1, “Pharmaceutical composition comprising L- carnitine or alkanoyl L-carnitine for the prevention and treatment of diseases brought about by lipid metabolism disorders” (Sigma-Tau Industrie Parmaceutiche Riunite S.p.A., priority 1995, published 2001).
“Also recorded” adds a separate entry of the source.

Experiments:
[1] = tested on: experimentally obese rats; assay: Tests in experimentally obese rats on a lipogenic diet for fifteen days (food consumption, body weight, serum triglycerides, epididymal fat); assay type: in vivo, Wistar rats; conditions: for MEAN DAILY FOOD CONSUMPTION (g) PER ANIMAL After 15 days / MEAN DAILY FOOD CONSUMPTION (g) PER ANIMAL Before treatment / Final body weight increase (g) AFTER 15 DAY-TREATMENT / SERUM Triglycerides AFTER 15 DAY-TREATMENT / Epididimal fat AFTER 15 DAY-TREATMENT: lipogenic diet
Procedure: Male Wistar rats aged about 2 months were fed on a lipogenic diet (50% glucose, 20% casein, 4% cellulose, 5% salt mixture, 1% hazel nut oil, 18% starch, 1% vitamin mixture).
This diet was administered for fifteen days consecutively to different groups of rats, one of which served as a control group, whereas in the other groups the diet was administered together with calcium hydroxycitrate (1%-2%) or Garcinia cambogia extract (2%-4%) or L-carnitine (2%-4%) or acetyl L-carnitine or propionyl L-carnitine at the same doses, or together with various combinations of these products at the same doses. At the end of the fifteenth day of treatment, food consumption was evaluated in treated rats vs. controls and increases in body weight and in serum triglycerides and epididymal fat were measured.

[2] = tested on: fructose-induced hypertriglyceridaemia; assay: Experimental hypertriglyceridaemia test (oral fructose); assay type: in vivo, Wistar rats; conditions: for EXPERIMENTALLY-INDUCED HYPERTRIGYCERIDAEMIA (serum triglycerides): 5 days before and two hours after 3 g fructose
Procedure: In these tests, male Wistar rats serum triglyceride elevation was induced experimentally by means of the oral administration of fructose according to the method disclosed by L. A. V. Carlson (J. Atheroscler. Res. 8, 667, 1968; Atherosclerosis 16, 349, 1972). In the 5-day period prior to administration of 3 g of fructose, the rats, divided into groups, were treated with L-carnitine or its derivatives or with calcium hydroxycitrate or Garcinia cambogia extract at different doses, or with various combinations of these products.
The administration of these products was then repeated two hours after administration of fructose, and 5 hours later all animals were sacrificed. Triglyceride assay was then performed according to the method of R. K. Donabedian (Clin. Chem 20, 632, 1974).

[3] = tested on: Wistar rats with hypercholesterolaemia induced by diet; assay: Experimental hypercholesterolaemia test (diet-induced, six weeks); assay type: in vivo; conditions: serum
Procedure: The results of tests conducted in Wistar rats with hypercholesterolaemia induced by diet according to the method described by C. […] Treatment both with L-carnitine and with calcium hydroxycitrate or with Garcinia cambogia extract, or with a combination of these products, was initiated together with a hypercholesterolaemia-inducing diet and continued for six weeks consecutively. At the end of this period, the assay was performed on the serum of the control animals and on that of the treated animals according to the method described by P. Roschlan (Clin. Chem. Clin. Biochem. 12, 403, 1975).

[4] = tested on: atherosclerotic vascular lesions; assay: Experimental atherosclerosis test (atherogenic diet for six weeks); assay type: in vivo, Wistar rats
Excerpt: Also in atherosclerotic vascular lesions induced experimenatlly according to the method of M. R. Malinow (Atherosclerosis 48, 105, 1983), with administration of an atherogenic diet (24% casein, 10% cotton oil, 5% salt, 60% sugar, 1% cholesterol, Vit D2 200 mUST/g of diet) for six weeks consecutively to different groups of male Wistar rats, it has been shown that the combination of carnitines plus calcium hydroxycitrate or Garcinia cambogia extract is capable of substantially potentiating the anti-atherogenic effect.
This was assessed by measuring the thickness of the abdominal aorta and the intensity of staining induced by Sudan IV using a scoring system from 1 to 5, according to degree of severity.

[5] = fifteen days of treatment on a lipogenic diet
[6] = g 1/100 g diet, listed as calcium hydroxycitrate
[7] = g 2/100 g diet, listed as calcium hydroxycitrate

| Compound | MEAN DAILY FOOD CONSUMPTION (g) PER ANIMAL After 15 days ([1]; g 2/100 g diet) | MEAN DAILY FOOD CONSUMPTION (g) PER ANIMAL After 15 days ([1]; g 4/100 g diet) | MEAN DAILY FOOD CONSUMPTION (g) PER ANIMAL Before treatment ([1]; g 2/100 g diet) | MEAN DAILY FOOD CONSUMPTION (g) PER ANIMAL Before treatment ([1]; g 4/100 g diet) | change in daily food consumption (in words) [1, 5] | Final body weight increase (g) AFTER 15 DAY-TREATMENT ([1]; g 2/100 g diet) | SERUM Triglycerides AFTER 15 DAY-TREATMENT ([1]; g 2/100 g diet) | Final body weight increase (g) AFTER 15 DAY-TREATMENT ([1]; g 4/100 g diet) | SERUM Triglycerides AFTER 15 DAY-TREATMENT ([1]; g 4/100 g diet) | EXPERIMENTALLY-INDUCED HYPERTRIGYCERIDAEMIA (serum triglycerides) ([2]; g 0.5/Kg) | EXPERIMENTALLY-INDUCED HYPERTRIGYCERIDAEMIA (serum triglycerides) ([2]; g 1/Kg) | EXPERIMENTALLY-INDUCED HYPERCHOLESTEROLEMIA, TOTAL CHOLESTEROL ([3]; g 2/100 g diet) | EXPERIMENTALLY-INDUCED HYPERCHOLESTEROLEMIA, TOTAL CHOLESTEROL ([3]; g 4/100 g diet) | severity of atherosclerotic lesions / anti-atherogenic effect (abdominal aorta thickness, Sudan IV staining score 1 to 5) [4] | other results |
| --- | --- | --- | --- | --- | --- | --- | --- | --- | --- | --- | --- | --- | --- | --- | --- |
| CC(=O)O[C@H](CC(=O)[O-])C[N+](C)(C)C [Acetyl L-carnitine] | 18.4 ± 0.44 g | 18.8 ± 0.57 g | 18.6 ± 0.39 g | 18.2 ± 0.41 g | No changes compared to controls; also recorded: non-significant changes | 60.4 ± 7.1 g | 95.81 ± 8.2 mg/100 ml | 60.1 ± 6.1 g | 90.8 ± 7.5 mg/100 ml | 191.2 ± 9.1 mg/100 ml | 188.4 ± 5.5 mg/100 ml | 266.7 ± 7.7 mg/dL | 255.4 ± 9.4 mg/dL | – | – |
| Calcium hydroxycitrate | 15.1 ± 0.46 g | – | 18.8 ± 0.44 g | – | substantial reduction | 38.9 ± 3.8 g | 73.66 ± 7.1 mg/100 ml | – | – | 170.6 ± 8.5 mg/100 ml | 145.5 ± 8.5 mg/100 ml | 180.5 ± 8.1 mg/dL | – | capable of reducing the severity of the atherosclerotic lesions | MEAN DAILY FOOD CONSUMPTION (g) PER ANIMAL After 15 days ([1]; g 1/100 g diet): 17.1 ± 0.35 g; MEAN DAILY FOOD CONSUMPTION (g) PER ANIMAL After 15 days [1, 6]: 17.1 g; MEAN DAILY FOOD CONSUMPTION (g) PER ANIMAL After 15 days [1, 7]: 15.1 g; MEAN DAILY FOOD CONSUMPTION (g) PER ANIMAL Before treatment ([1]; g 1/100 g diet): 19.2 ± 0.65 g; MEAN DAILY FOOD CONSUMPTION (g) PER ANIMAL Before treatment [1, 6]: 19.2 g; MEAN DAILY FOOD CONSUMPTION (g) PER ANIMAL Before treatment [1, 7]: 18.8 g; body weight gain (in words) [1, 5]: reduced; Epididimal fat AFTER 15 DAY-TREATMENT ([1]; g 1/100 g diet): 3.91 ± 0.36 g; Final body weight increase (g) AFTER 15 DAY-TREATMENT ([1]; g 1/100 g diet): 46.6 ± 4.1 g; SERUM Triglycerides AFTER 15 DAY-TREATMENT ([1]; g 1/100 g diet): 76.84 ± 6.9 mg/100 ml; Epididimal fat AFTER 15 DAY-TREATMENT ([1]; g 2/100 g diet): 3.32 ± 0.39 g; fructose-induced hypertriglyceridaemia (in words) ([2]; rat, in vivo): reduced; EXPERIMENTALLY-INDUCED HYPERCHOLESTEROLEMIA, TOTAL CHOLESTEROL ([3]; g 1/100 g diet): 196.6 ± 9.6 mg/dL; total cholesterol values (in words) [3]: fair degree of lowering |
| CCC(=O)O[C@H](CC(=O)[O-])C[N+](C)(C)C [Propionyl L-carnitine] | 17.1 ± 0.38 g | 18.5 ± 0.48 g | 17.7 ± 0.56 g | 18.2 ± 0.44 g | No changes compared to controls; also recorded: non-significant changes | 62.4 ± 3.9 g | 88.4 ± 8.16 mg/100 ml | 58.7 ± 3.7 g | 82.7 ± 6.6 mg/100 ml | 184.2 ± 6.8 mg/100 ml | 180.4 ± 7.9 mg/100 ml | 250.6 ± 10.1 mg/dL | 235.3 ± 9.6 mg/dL | – | Epididimal fat AFTER 15 DAY-TREATMENT ([1]; g 4/100 g diet): 4.0 ± 5.6 g |
| C[N+](C)(C)C[C@H](O)CC(=O)[O-] [L-carnitine] | – | 17.8 ± 0.41 g | 17.3 ± 0.35 g | 18.4 ± 0.61 g | No changes compared to controls; also recorded: non-significant changes | 66.2 ± 4.9 g | 92.55 ± 7.7 mg/100 ml | 64.5 ± 5.1 g | 90.44 ± 6.8 mg/100 ml | 190.4 ± 9.6 mg/100 ml | 190.8 ± 8.6 mg/100 ml | 270.4 ± 5.1 mg/dL | 260.6 ± 4.4 mg/dL | capable of reducing the severity of the atherosclerotic lesions | – |
